Key:
Assay type in all cases: cell-based
[1] = molecular target: T1, RXRα (Homo sapiens, UniProt P19793); experiment: Gal4-hybrid reporter gene assay RXRα; conditions: mean ± S.E.M., n ≥ 3
T1 construct: expressed in transfected cells; host or cells: HEK293T
T1 sequence (P19793 227-458 limits assumed): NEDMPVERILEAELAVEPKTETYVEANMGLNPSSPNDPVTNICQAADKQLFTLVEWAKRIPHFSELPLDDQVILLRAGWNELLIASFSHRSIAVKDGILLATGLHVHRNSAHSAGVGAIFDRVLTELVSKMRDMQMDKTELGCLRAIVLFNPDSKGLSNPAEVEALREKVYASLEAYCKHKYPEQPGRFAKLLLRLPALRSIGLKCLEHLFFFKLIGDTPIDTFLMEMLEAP
Experimental: (§1) NR modulation was determined as described previously[45] in Gal4 hybrid reporter gene assays in HEK293T cells (German Collection of Microorganisms and Cell Culture GmbH, DSMZ) using pFR-Luc (Stratagene, La Jolla, CA, USA; reporter), pRL-SV40 (Promega, Madison, WI, USA; internal control) and the hybrid receptor clones pFA-CMV-hTHRα-LBD,[46] pFA-CMV-hPPARγ-LBD,[47] pFA-CMV-hFXR-LBD,[48] and pFA-CMV-hRXRα-LBD,[49] coding for the hinge region and ligand binding domain of the canonical isoform of the respective NR. Cells were cultured in Dulbecco's modified Eagle's medium (DMEM), high glucose supplemented with 10% fetal calf serum (FCS), sodium pyruvate (1 mM), penicillin (100 U mL^−1), and streptomycin (100 μg mL^−1) at 37 °C and 5% CO2 and seeded in 96-well plates (3 × 10^4 cells per well). After 24 h, medium was changed to Opti-MEM without supplements and cells were transiently transfected using Lipofectamine LTX reagent (Invitrogen, Carlsbad, CA, USA) according to the manufacturer's protocol. Five hours after transfection, cells were incubated with the test compounds in Opti-MEM supplemented with penicillin (100 U mL^−1), streptomycin (100 μg mL^−1) and 0.1% DMSO for 16 h before luciferase activity was measured using the Dual-Glo Luciferase Assay System (Promega) according to the manufacturer's protocol on a Tecan Spark luminometer (Tecan Deutschland GmbH, Crailsheim, Germany). Firefly luminescence was divided by Renilla luminescence and multiplied by 1000 resulting in relative light units (RLU) to normalize for transfection efficiency and cell growth. Fold activation was obtained by dividing the mean RLU of test compound by the mean RLU of the untreated control. All samples were tested in at least three biologically independent experiments in duplicates. For dose–response curve fitting and calculation of EC50 values, the equation “[agonist] vs. response − variable slope (four parameters)” was used in GraphPad Prism (version 7.00, GraphPad Software, La Jolla, CA, USA). For selectivity profiling, the hybrid reporter gene assay was performed with Gal4 fusion receptor plasmids for RARα, PPARα, PPARδ, VDR, CAR and LXRα. The following reference agonists were used: triiodothyronine (1 μM, THR), all-trans retinoic acid (1 μM, RAR), GW7647 (1 μM, PPARα), pioglitazone (1 μM, PPARγ), L165041 (1 μM, PPARδ), calcitriol (1 μM, VDR), CITCO (1 μM, CAR), T0901317 (1 μM, LXR), GW4064 (1 μM, FXR), bexarotene (1 μM, RXR).

[2] = molecular target: T2, PPARγ (Homo sapiens, UniProt P37231); experiment: Gal4-hybrid reporter gene assay PPARγ; conditions: mean ± S.E.M., n ≥ 3
T2 construct: expressed in transfected cells; host or cells: HEK293T
T2 sequence (P37231 238-503 limits assumed): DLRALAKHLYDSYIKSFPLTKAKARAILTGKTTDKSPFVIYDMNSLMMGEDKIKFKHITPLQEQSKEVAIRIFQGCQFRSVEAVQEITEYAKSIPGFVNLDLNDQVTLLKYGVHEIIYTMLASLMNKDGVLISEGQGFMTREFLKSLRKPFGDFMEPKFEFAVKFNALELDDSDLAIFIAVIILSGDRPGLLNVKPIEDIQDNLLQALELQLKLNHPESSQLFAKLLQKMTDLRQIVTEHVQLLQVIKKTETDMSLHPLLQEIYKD
Experimental: as §1

[3] = molecular target: T3, FXR (Homo sapiens, UniProt Q96RI1); experiment: Gal4-hybrid reporter gene assay FXR; conditions: HEK293T, Gal4-hybrid reporter; Inactive = tested 1–300 μM; mean ± S.E.M., n ≥ 3
T3 construct: expressed in transfected cells; host or cells: HEK293T
T3 sequence (Q96RI1 262-486 limits assumed): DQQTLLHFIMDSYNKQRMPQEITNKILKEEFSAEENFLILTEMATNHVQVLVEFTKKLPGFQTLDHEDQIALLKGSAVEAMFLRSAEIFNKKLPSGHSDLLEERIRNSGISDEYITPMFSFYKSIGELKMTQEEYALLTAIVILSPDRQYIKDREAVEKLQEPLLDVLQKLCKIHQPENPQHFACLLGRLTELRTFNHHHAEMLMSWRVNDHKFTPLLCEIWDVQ
Experimental: as §1

[4] = molecular target: T4, THRα (Homo sapiens, UniProt P10827); experiment: Gal4-hybrid reporter gene assay THRα; conditions: mean ± S.E.M., n ≥ 3
T4 construct: expressed in transfected cells; host or cells: HEK293T
T4 sequence (P10827 128-410 isoform P10827-2 limits assumed): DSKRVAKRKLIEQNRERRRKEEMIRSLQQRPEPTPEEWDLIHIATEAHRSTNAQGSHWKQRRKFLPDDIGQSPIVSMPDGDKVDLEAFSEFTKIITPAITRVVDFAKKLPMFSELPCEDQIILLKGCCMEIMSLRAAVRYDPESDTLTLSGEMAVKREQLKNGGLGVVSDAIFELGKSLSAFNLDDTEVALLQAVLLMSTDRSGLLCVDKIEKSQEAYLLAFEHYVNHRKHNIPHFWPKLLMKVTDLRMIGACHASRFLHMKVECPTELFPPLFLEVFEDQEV
Experimental: as §1

[5] = HEK293T, Gal4-hybrid reporter, Inactive = tested 1–300 μM
[6] = maximum reporter activation vs DMSO (0.1%) treated cells

C/C(=C\C(=O)O)c1ccc(C(F)(F)F)cc1 [compound 91]
EC50 [1, 5]: 134 ± 41 µM
max. fold activation RXRα [1, 6]: (1.9 ± 0.9-fold)
EC50 [2, 5]: 255 ± 15 µM
max. fold activation PPARγ [2, 6]: (4.3 ± 0.2-fold)
EC50 FXR [3]: Inactive
EC50 [4, 5]: 92 ± 29 µM
max. fold activation THRα [4, 6]: (2.7 ± 0.3-fold)

Reference: article PMC12352620, “Fragment-based discovery of dual ligand pharmacophores for lipid-sensing transcription factors for designed polypharmacology” (RSC Medicinal Chemistry, 2025)
